For orientation: GI50 means the concentration that inhibits growth by half.

Results on 13 compounds are retold here after ChEMBL document CHEMBL1201862, “PubChem BioAssay data set” (2004).

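Following 48 hours of exposure in 96-well plates, responses at five concentrations were used to interpolate endpoints linearly. Abbreviation: GI50, concentration required for 50% inhibition of growth.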 Calls of active or inactive are those of the source. Rule as the data show it: active = GI50 up to about 1.1 µM and inactive = higher.

Among the test systems are NCI-H522; ACHN; MDA-MB-435; BT-549; M14; SK-MEL-28; HL-60; MDA-MB-231; OVCAR-5; NCI-H460; HT-29; T47D; SR; IGROV-1; A549; SF-268; RXF 393.
Holding throughout (experiment): DTP human tumour cell line panel, 48 h

Regarding `COC1=CC2=NCCc3n[nH]c(c32)C1=O`, the GI50 in the test with NCI-H522 is 3.51 µM (inactive); in the test on ACHN, 19.2 µM (inactive); in the test on MDA-MB-435, 11.5 µM (inactive); with BT-549, 16.9 µM (inactive); in the test with M14, 15 µM (inactive); in the test on SK-MEL-28 it was 18.1 µM (inactive). Moreover, the GI50 with HL-60 was 0.0482 µM (active); with MDA-MB-231 it was 14.5 µM (inactive); with OVCAR-5 it was 18.5 µM (inactive); with NCI-H460, 27 µM (inactive); in the test with HT-29, 13 µM (inactive); with T47D it was 2.9 µM (inactive). Further, the GI50 was 13.4 µM (inactive) with SR, 19.1 µM (inactive) in the test on IGROV-1 and 24.3 µM (inactive) in the test on A549.

Turning to `Nc1nncc2[nH]nnc12`, the GI50 in the test on ACHN was > 100 µM (inactive); in the test with MDA-MB-435, > 100 µM (inactive); in the test with BT-549, > 100 µM (inactive); with M14, > 100 µM (inactive); in the test on SK-MEL-28 it was > 100 µM (inactive); with HL-60, 12.8 µM (inactive). Besides, the GI50 with SF-268, in the test with MDA-MB-231, in the test with OVCAR-5, with NCI-H460, in the test with HT-29 and in the test on T47D was > 100 µM (inactive) throughout. The GI50 in the test on SR was 22.9 µM (inactive); with IGROV-1, > 100 µM (inactive); with A549 it was > 100 µM (inactive); with RXF 393, > 100 µM (inactive).

With `O=C(O)CN(CC(=O)O)Cc1cc2c(cc1O)Oc1cc(O)c(CN(CC(=O)O)CC(=O)O)cc1C21OC(=O)c2ccccc21` [OFTASCEINE], the GI50 with NCI-H522, with ACHN, in the test with MDA-MB-435, in the test on BT-549, with M14 and in the test on SK-MEL-28 was > 100 µM (inactive) each time. Also, the GI50 in the test with HL-60 was > 100 µM (inactive); in the test on SF-268 it was > 100 µM (inactive); in the test with MDA-MB-231, > 100 µM (inactive); in the test with OVCAR-5 it was > 100 µM (inactive); in the test with NCI-H460 it was > 10 µM (inactive); in the test on HT-29 it was > 100 µM (inactive). Besides, the GI50 in the test with T47D, with SR, in the test on IGROV-1 and with A549 was > 100 µM (inactive) in each case.

As to `Cn1nc2ccc(Nc3cc(=O)[nH]c4ccc5nn(C)nc5c34)cc2n1`, the GI50 in the test with NCI-H522 is 65.6 µM (inactive); in the test with ACHN, > 100 µM (inactive); in the test with MDA-MB-435 it was > 100 µM (inactive); in the test with BT-549, > 100 µM (inactive); in the test with M14, > 100 µM (inactive); in the test on SK-MEL-28 it was > 100 µM (inactive). Besides, the GI50 with SF-268, with MDA-MB-231, in the test with OVCAR-5, in the test with NCI-H460, in the test on HT-29 and in the test on T47D was > 100 µM (inactive) in each case. The GI50 with SR is 53.2 µM (inactive); with IGROV-1, 50.5 µM (inactive); with A549, > 100 µM (inactive); in the test on RXF 393 it was > 100 µM (inactive).

Regarding `Cc1ccccc1/N=N/c1c(O)ccc2ccccc12`, the GI50 in the test with NCI-H522, in the test on ACHN, with MDA-MB-435, with BT-549, in the test with M14 and with SK-MEL-28 was > 100 µM (inactive) each time. For the same compound, the GI50 was > 100 µM (inactive) in the test with HL-60; 62.4 µM (inactive) with SF-268; > 100 µM (inactive) in the test with MDA-MB-231; > 100 µM (inactive) with OVCAR-5; > 100 µM (inactive) with HT-29; 59.3 µM (inactive) in the test on T47D. For the same compound, the GI50 is 59.2 µM (inactive) in the test with IGROV-1, 69.3 µM (inactive) with A549 and > 100 µM (inactive) in the test with RXF 393.

As to `Cc1nn2c(C(=O)N/N=C/c3ccccc3O)c(C)nc2s1`, the GI50 in the test on NCI-H522 is > 100 µM (inactive); with ACHN it was 56.1 µM (inactive); in the test on MDA-MB-435, > 100 µM (inactive); with BT-549, > 100 µM (inactive); in the test on M14, 53 µM (inactive); in the test on SK-MEL-28, > 100 µM (inactive). The GI50 in the test on HL-60 was 31.8 µM (inactive); with SF-268 it was > 100 µM (inactive); in the test with MDA-MB-231, > 100 µM (inactive); with OVCAR-5 it was > 100 µM (inactive); in the test on NCI-H460, 49.7 µM (inactive); with HT-29, > 100 µM (inactive). For the same compound, the GI50 with T47D was 61.5 µM (inactive); with IGROV-1 it was > 100 µM (inactive); in the test with A549, > 100 µM (inactive); with RXF 393, > 100 µM (inactive).

Take `COc1cccc(-c2nc(-c3cnccn3)n(C3OC(CO)C(O)C3O)n2)c1` (centres undefined): the GI50 in the test with NCI-H522, in the test on MDA-MB-435, in the test with BT-549, in the test with M14, with SK-MEL-28 and in the test on HL-60 was > 100 µM (inactive) in each case. Moreover, the GI50 in the test with SF-268, in the test on MDA-MB-231, with OVCAR-5, in the test with NCI-H460, in the test on HT-29 and with T47D was > 100 µM (inactive) throughout. Besides, the GI50 with SR, in the test with IGROV-1 and with A549 was > 100 µM (inactive) throughout.

`COc1ccc(C(SC2C(O)C(CO)OC2n2ccc(=O)[nH]c2=O)(c2ccccc2)c2ccc(OC)cc2)cc1` (centres undefined): the GI50 in the test with NCI-H522 was 14.7 µM (inactive); in the test on ACHN, 29 µM (inactive); in the test on MDA-MB-435, 9.1 µM (inactive); with BT-549 it was 16.6 µM (inactive); in the test with M14, 11.3 µM (inactive); with SK-MEL-28, 21.8 µM (inactive). Moreover, the GI50 is 25.6 µM (inactive) in the test on HL-60; 17.9 µM (inactive) in the test on SF-268; 16.1 µM (inactive) in the test with MDA-MB-231; 18.4 µM (inactive) with OVCAR-5; 10.9 µM (inactive) with NCI-H460; 17.6 µM (inactive) in the test on HT-29. Moreover, the GI50 was 16.6 µM (inactive) in the test on T47D, 17.7 µM (inactive) in the test with IGROV-1, 16.4 µM (inactive) in the test on A549 and 18.1 µM (inactive) in the test with RXF 393.

With `NC(=O)c1cc2ccccc2o/c1=N/c1ccccc1`, the GI50 in the test with ACHN, in the test with MDA-MB-435, with BT-549, in the test with M14, in the test with SK-MEL-28 and in the test on HL-60 was > 100 µM (inactive) throughout. The GI50 with SF-268, with MDA-MB-231, in the test with OVCAR-5, in the test with NCI-H460, in the test on HT-29 and in the test with T47D was > 100 µM (inactive) in each case. Moreover, the GI50 with SR, with IGROV-1, in the test with A549 and with RXF 393 was > 100 µM (inactive) each time.

Take `NC1=C(Cl)C(=O)c2c(O)ccc(O)c2C1=O`: the GI50 was 14.6 µM (inactive) in the test on NCI-H522; 4.88 µM (inactive) with ACHN; 2.01 µM (inactive) with MDA-MB-435; 1.93 µM (inactive) in the test on BT-549; 1.85 µM (inactive) in the test on M14; 2.39 µM (inactive) in the test on SK-MEL-28. Moreover, the GI50 in the test on HL-60 was 2.55 µM (inactive); in the test with SF-268, 3.83 µM (inactive); with MDA-MB-231, 5.73 µM (inactive); in the test on OVCAR-5, 5.85 µM (inactive); with NCI-H460, 1.91 µM (inactive); in the test with HT-29, 2.54 µM (inactive). Further, the GI50 was 7.24 µM (inactive) in the test on T47D, 5.83 µM (inactive) in the test with IGROV-1, 2.2 µM (inactive) in the test on A549 and 7.45 µM (inactive) in the test on RXF 393.

On to `COC(=O)C1=C(C(=O)OC)SC(=C2SC3=C(SC(=C4SCCS4)S3)S2)S1`, for which the GI50 with NCI-H522, in the test with ACHN, with MDA-MB-435, with BT-549, in the test on M14 and in the test with SK-MEL-28 was > 100 µM (inactive) in each case. The GI50 in the test on HL-60, in the test on SF-268, in the test with MDA-MB-231, in the test with OVCAR-5, in the test with HT-29 and with T47D was > 100 µM (inactive) in each case. For the same compound, the GI50 with SR, in the test with IGROV-1, in the test with A549 and with RXF 393 was > 100 µM (inactive) throughout.

Take `O[C@H]1[C@H](O)[C@@H](O)[C@H](O)[C@@H](O)[C@H]1O` [INOSITOL]: the GI50 in the test with ACHN, with MDA-MB-435, in the test with BT-549, in the test on M14, with SK-MEL-28 and with SF-268 was > 1000 µM (inactive) each time. Moreover, the GI50 in the test on MDA-MB-231 is > 1000 µM (inactive); with OVCAR-5, > 1000 µM (inactive); with NCI-H460, > 1000 µM (inactive); with HT-29 it was > 1000 µM (inactive); in the test on T47D, > 1000 µM (inactive); in the test with SR it was 56.6 µM (inactive). Moreover, the GI50 in the test with IGROV-1, in the test on A549 and with RXF 393 was > 1000 µM (inactive) in each case.

Turning to `NC(=O)NC(=O)CCC(NS(=O)(=O)c1ccccc1)C(=O)NC(N)=O` (centres undefined), the GI50 with NCI-H522, in the test on ACHN, in the test on MDA-MB-435, with BT-549, with M14 and in the test with SK-MEL-28 was > 100 µM (inactive) throughout. The GI50 in the test on HL-60, in the test on SF-268, in the test on MDA-MB-231, with OVCAR-5, in the test with NCI-H460 and with HT-29 was > 100 µM (inactive) in each case. The GI50 in the test on T47D, with SR, in the test on IGROV-1 and with A549 was > 100 µM (inactive) each time.
